Results taken from patent publication US20230128730A1, “OXYGEN IMPERMEABLE PORPHYRIN PHOTOSENSITIZER FILM COMPOSITION FOR APPLICATION TO PLANTS” (SUNCOR ENERGY INC., priority 2020, published 2023).
Structures can show the parent of a compound that is named as a salt. Where two headings read alike, the source gives them in different places.

Experiments:
Sclerotinia homoeocarpa [1] = assay: Broth protocol: control of dollar spot fungus with modified chlorins; assay type: cell-based; details: for inhibition at 10 µM / inhibition at 100 µM: Clarireedia homoeocarpa; for Inhibition, % (Dark) / Inhibition, % (Light): Broth data; for Inhibition, % (Light): light 1 hour, about 1000 μmol/m2/s PAR
Procedure: Broth protocol: control of dollar spot fungus (Sclerotinia homoeocarpa) with modified chlorins was assessed. Treatments were prepared in Phosphate Buffered Saline (PBS) in 24 well plates (in duplicates for light vs. dark incubation) at desired concentrations. Then, a 5 mm diameter plug of a Sclerotinia homoeocarpa isolate (3 isolates total tested) was inoculated into the PBS and incubated at 21° C. in the dark for 2 hours. After 2 hours, one of the 24 well plates (with isolates in triplicate) was left in the dark and one 24 well plate was placed under illumination for 1 hour (all at 21° C.). Following illumination, fungal plugs were removed from PBS, blotted dry on sterile filter paper and transferred to non-amended Potato Dextrose Agar (PDA). Radial growth of the fungus was monitored daily until the growth of S. homoeocarpa reached the edge of the Petri-dish. Illumination was provided by LED lights emitting about 1000 μmol/m2/s photosynthetically active radiation (PAR).

[2] = Method A: photostability in a non-hydrated state (solid state), dried films under LED light; assay type: physicochemical
Procedure: Fifty microlitres of each formulation was pipetted into 12 wells of a 96-well clear-bottom black microplate (Thomas Scientific, Swedesboro, N.J.) and dried into thin films using a dehydrator (Gourmia GFD1680) at a temperature of 45° C. for 3 h. At the beginning of the experiment, the microplate was placed under a Heliospectra RX30 LED light array (Heliospectra, San […], Calif.). The LED array was adjusted such that the microplates received on average 1300 μmol/m^2/s of light intensity. The microplate was tightly covered with aluminum foil and at select intervals peeled back to irradiate films with either 0 h, 24 h, 48 h or 72 h of light. […] An absorbance spectral scan was conducted on the microplate (350-750 nm) using a plate reader (Spectramax M2E, Molecular Devices, San Jose, Calif.) and the peak intensity was monitored at 24 h, 48 h and/or 72 h timepoints and compared with the corresponding 0 h timepoint to determine the degree of photodegradation. The % photosensitizer remaining after irradiation was calculated using the following equation: [formula] where Abst is the absorbance peak of the sample receiving t hours of light exposure; Abs0 is the absorbance peak of the sample receiving no light exposure. All data is expressed as mean±standard deviation.

[3] = Method B: photostability in solution (liquid state) under LED light; assay type: physicochemical
Procedure: Fifty microlitres of each formulation was pipetted into 12 wells of a 96-well clear-bottom black microplate (Thomas Scientific, Swedesboro, N.J.), followed by the addition of 50 μL dH2O. The sample was sealed with a microplate clear adhesive film to minimize water evaporation. At the beginning of experiment, the microplate was placed under a Heliospectra RX30 LED light array (Heliospectra, San […], Calif.). The LED array was adjusted such that the microplates received on average 1300 μmol/m^2/s of light intensity. […] The % photosensitizer remaining after irradiation was calculated using the following equation: [formula] where Abst is the absorbance peak of the sample receiving t hours of light exposure; Abs0 is the absorbance peak of the sample receiving no light exposure. All data is expressed as mean±standard deviation.

[4] = tested on: Colletotrichum orbiculare ATC20767 (Cgm); assay: Control of Colletotrichum orbiculare on Nicotiana benthamiana, film-forming formulations applied 48 h before inoculation; assay type: in vivo; details: host Nicotiana benthamiana, PVOH 89 kDa, >99% hydrolysis
Procedure: Control of the fungal plant pathogen Colletotrichum orbiculare ATC20767 (Cgm) on the host plant Nicotiana benthamiana following treatment with formulations containing Magnesium chlorophyllin, sodium salt with hydrogel polymer, polyvinylalcohol 89 kDa (99%+hydrolysis) and phenolic antioxidant vanillin were assessed. Treatments were applied to N. benthamiana plants approximately 48 h prior to inoculation to simulate photodegradation on a leaf surface. Subsequently, with a spore suspension of Cgm was applied to the leaves. Plants were then exposed to light for a 24-hour period followed by dark incubation until disease symptoms were evident on the water-treated control plants. Once disease symptoms were evident, lesions were counted, and leaf area measured in order to determine the number of lesions/cm^2 leaf area. Four replicate plants were used per treatment and plants were randomized under the light source. […]
Control of the fungal plant pathogen Colletotrichum orbiculare ATC20767 (Cgm) on the host plant Nicotiana benthamiana following treatment with formulations containing Magnesium chlorophyllin, sodium salt with hydrogel polymer, polyvinylalcohol 89 kDa (99%+hydrolysis) and phenolic antioxidant tannic acid were assessed. […] Once disease symptoms were evident, lesions were counted, and leaf area measured in order to determine the number of lesions/cm^2 leaf area. […]

[5] = tested on: Pseudomonas syringae v. tabacii; assay: Inhibition of P. syringae in host plant N. benthamiana by film-forming compositions; assay type: in vivo; details: host Nicotiana benthamiana, PVOH 89 kDa, >99% hydrolysis
Procedure: Two days prior to inoculation, chemical treatments were applied to N. benthamiana plants at the 5-6 leaf stage until run off using a handheld spray bottle delivering a fine spray. Plants sprayed with water were used for Control. Immediately after treatment, plants were randomly placed on a shelf and exposed to LED lights emitting approximately 450 μmol/m2/s photo-synthetically active radiation (PAR) for a 12 h light/12 h dark photoperiod. For inoculation, Pst from a glycerol stock was cultured on Tryptic Soy Agar (TSA) and incubated overnight at 30° C. Bacterial cells were collected from the overnight culture, suspended in de-ionized water and diluted to 1×10^8 CFU/ml followed by the addition of 0.02% (v/v) Silwet L-77. Inoculum was then applied to plants until runoff and the plants covered with transparent plastic domes to maintain 100% relative humidity.
Inoculated plants were randomly placed on a shelf in the Growth room which was maintained at 24° C., and were exposed to a combination of fluorescent and LED lights emitting approximately 250 μmol/m^2/s PAR for an 16 h light/8 h dark photoperiod for 7 days. Entire plants were assessed for disease severity using rating scale of 0-100%. Disease symptoms included yellow lesions, discoloration on foliage, leaf deformation and stunted growth. Four replications per treatment were used in the experiment.

[6] = Thermal stability of MgChln, 2 weeks at 54° C.; assay type: physicochemical; details: in dH2O, wrapped in aluminum foil, mean ± SD
Procedure: These samples were wrapped in aluminum foil and stored in a 54° C. oven for a period of 2 weeks. After the 2-week period, the samples were taken out of the 54° C. oven or -20° C. freezer and assayed using the UV-Visible plate reader (Spectramax M2E, Molecular Devices, San Jose, Calif.) with 12 technical replicates per sample. The degradation of […] as a result of storage at elevated temperature was determined by calculating the % photosensitizer remaining using the following equation: [formula] where Abst is the absorbance peak of the sample after incubation for 2 weeks at 54° C.; Abs0 is the absorbance peak of the sample at the start of experiment without being stored at 54° C. All data is expressed as mean±standard deviation.

Sclerotinia homoeocarpa [7] = assay: Agar protocol: control of dollar spot fungus with modified Ce6; assay type: cell-based; details: Agar data, 10 uM
Procedure: Agar protocol: control of dollar spot fungus (Sclerotinia homoeocarpa) with modified Ce6 was assessed. Treatments were amended into Potato Dextrose Agar (PDA) at desired concentrations. Then, a 5 mm diameter plug of a Sclerotinia homoeocarpa isolate (3 isolates total tested) was inoculated into the center of the amended Petri-dish and incubated at 21° C. in the dark for 24 hours. After 24 hours, one set of Petri-dishes (in triplicate) was left in the dark and one set was placed under illumination for the remainder of the experiment (all at 21° C.). Radial growth of the fungus was monitored daily until the growth of S. homoeocarpa on non-amended PDA reaches the edge of the Petri-dish. Illumination was provided by fluorescent lights emitting about 180 μmol/m2/s photosynthetically active radiation (PAR).

[8] = tested on: Pseudomonas syringae pv. tabaci; assay: In vitro photodynamic inactivation of Pseudomonas syringae pv. tabaci with modified Ce6; assay type: cell-based
Procedure: Experiments were conducted to evaluate control of the gram-negative bacterial plant pathogen Pseudomonas syringae pv. tabaci with modified Ce6. Treatments were prepared in Phosphate Buffered Saline (PBS) in 96 well plates at desired concentrations. A bacterial suspension was inoculated into the PBS and incubated at 28° C. in the dark for 30 min. After 30 min, the 96 well plate was placed under illumination for 1 hour (at 21° C.). A separate plate prepared at the same time was kept in the dark without illumination and served as dark control. Following illumination, bacterial suspensions were serially diluted and 10 μL of each dilution was spread uniformly on Tryptic Soy Agar (TSA) plates and placed in the dark in an incubator at 28° C. for 48 hours. After 48 hours, bacterial colonies were counted and results were log transformed (log colony forming units (CFU)/mL). The relative inactivation was determined by taking the difference between log CFU(PBS control) and log CFU (treatments). Sample Illumination was provided by LED lights (Heliospectra RX30) emitting about 1000 μmol/m^2/s photosynthetically active radiation (PAR).

[9] = tested on: Kentucky bluegrass (Poa pratensis); assay: Kentucky bluegrass tolerance to salt stress (turf quality); assay type: in vivo; details: 170 mM NaCl, 2 salt applications; scale of 1-9 (1=dead, 9=healthy); untreated control 5
Procedure: Kentucky bluegrass (Poa pratensis) was grown under greenhouse conditions for ˜3 weeks. After 3 weeks, plants were sprayed with formulations and allowed to sit for 24 hours, after which the pots were placed in a 170 mM NaCl solution until the soil was saturated. The salt application was repeated again 7 days later for a total of 2 salt applications. Salinity stress was evaluated based on a turf quality scale of 1-9; where 1=dead, brown turf; 6=minimally acceptable turf quality (based on standards for golf courses or sports fields); and 9=dense, dark green turf (healthy). Data are average of 5 replicates.

[10] = 1 h, read-out: Inhibition, % (Light)
[11] = various tetrapyrroles, PVOH 89 kDa, >99% hydrolysis and tannic acid, 72 h simulated sunlight
[12] = various tetrapyrroles, PVOH 89 kDa, >99% hydrolysis and tannic acid, 6 h simulated light

Work on `C=Cc1c(C)c2cc3nc(c(CC(=O)NCCOP(=O)(O)O)c4[nH]c(cc5nc(cc1[nH]2)C(C)=C5CC)c(C)c4C(=O)O)C(CCC(=O)O)C3C` (stereo not drawn) [Ce6-mono-EP^15 amide octylammonium salt] yielded an inhibition at 10 µM (Sclerotinia homoeocarpa [1]; [10]) of 58%, an inhibition at 100 µM (Sclerotinia homoeocarpa [1]; [10]) of 71% and an inhibition at 10 µM (Sclerotinia homoeocarpa [1]; read-out: Inhibition, % (Dark)) of 3%. It also gave an inhibition at 100 µM (Sclerotinia homoeocarpa [1]; read-out: Inhibition, % (Dark)) of -5%.

With `C=CC1=C(C)C2=CC3=NC(=C(CC(=O)[O-])C4=NC(=C(C)C4=C([O-])[O-])C=c4[n-]c(c(C)c4CC)=CC1=N2)C(CCC(=O)[O-])C3C.[H+].[H+].[H+].[Mg+2]` (stereo not drawn) [MgChln, Magnesium chlorin e6] the “% photosensitizer remaining at 72 h (solid state)” value ([2]; MgChln, PVOH 89 kDa, >99% hydrolysis, tannic acid, adjuvants, 72 h simulated sunlight) was 41.2 ± 2.9%, the “% photosensitizer remaining at 72 h (solid state)” value ([2]; MgChln, PVOH 89 kDa, >99% hydrolysis, various antioxidants, 72 h simulated sunlight) was 31.6 ± 2.3% and the “% photosensitizer remaining at 72 h (solid state)” value ([2]; MgChln, PVOH 89 kDa, >99% hydrolysis, dried film, 72 h light irradiation, mean ± SD) was 46.0 ± 1.8%. For the same compound, the “% photosensitizer remaining at 72 h (solid state)” value ([2]; MgChln, PVOH 146 kDa, >99% hydrolysis, 72 h simulated sunlight, mean ± SD) was 29.1 ± 2%, the “% photosensitizer remaining at 72 h (solid state)” value ([2]; MgChln, PVOH of varied molecular weight and degree of hydrolysis, 72 h simulated sunlight, mean ± SD) was 45.2 ± 7.1% and the “% photosensitizer remaining at 72 h (solid state)” value ([2]; MgChln, various film-forming polymers and tannic acid, 72 h simulated sunlight) was 42.4 ± 2.5%. For the same compound, the “% photosensitizer remaining at 6 h (liquid state)” value (“% photosensitizer remaining at 6 h” below) ([3]; MgChln, PVOH 89 kDa, >99% hydrolysis, tannic acid, adjuvants, 6 h simulated light) was 31.5 ± 5.3%, the “% photosensitizer remaining at 6 h” value ([3]; MgChln, PVOH 89 kDa, >99% hydrolysis, various antioxidants, 6 h simulated light) was 20.6 ± 3.9% and the “% photosensitizer remaining at 6 h” value ([3]; MgChln, PVOH 146 kDa, >99% hydrolysis, 6 h simulated sunlight, mean ± SD) was 35.2 ± 2.1%. The “% photosensitizer remaining at 6 h” value ([3]; MgChln, PVOH of varied molecular weight and degree of hydrolysis, 6 h simulated sunlight, mean ± SD) was 44.6 ± 9.6%, the “% photosensitizer remaining at 6 h” value ([3]; MgChln, various film-forming polymers and tannic acid, 6 h) was 27.5 ± 1.8% and the “% inhibition” value ([4]; applied about 48 h prior to inoculation) was 76%. For the same compound, the “% Disease inhibition” value ([4]; sprayed films irradiated 48 h prior to inoculation with fungal spores) was 95.1%, the “% Disease inhibition” value ([5]; relative to water control) was 45.3% and the “Disease severity, % Mean” value ([5]; sprayed two days prior to inoculation, rated 7 days after, scale 0-100%, control 80) was 43.8%. For the same compound, the “% Photosensitizer remaining” value [6] was 62 ± 7%.

With Aluminum chlorin e6 [Aluminum Ce6Na3] the “% photosensitizer remaining at 72 h (solid state)” value [2, 11] was 91.4 ± 5.5% and the “% photosensitizer remaining at 6 h” value [3, 12] was 3.9 ± 0.2%.

With “Chlorin e6, trisodium salt [Ce6Na3, reference compound]” the “% photosensitizer remaining at 72 h (solid state)” value [2, 11] was 84.2 ± 7^ %, the “% photosensitizer remaining at 6 h” value [3, 12] was 19.4 ± 0.5% and the “Inhibition, % (Dark)” value (Sclerotinia homoeocarpa [7]; dark) was 26%. For the same compound, the “Inhibition, % (Light)” value (Sclerotinia homoeocarpa [7]; light about 180 μmol/m2/s PAR) was 74%, the “Inhibition, % (Dark)” value (Sclerotinia homoeocarpa [1]; 10 uM) was −4% and the “Inhibition, % (Light)” value (Sclerotinia homoeocarpa [1]; 10 uM) was 53%. The “Inhibition, % (Dark)” value (Sclerotinia homoeocarpa [1]; 100 uM) was 16%, the “Inhibition, % (Light)” value (Sclerotinia homoeocarpa [1]; 100 uM) was 66% and the “Relative Inactivation (log[CFUcontrol mL^−1] − log[CFUtreatment mL^−1]), Dark” value ([8]; dark control plate) was −0.03 ± 0.13 log CFU mL^−1. For the same compound, the “Relative Inactivation (log[CFUcontrol mL^−1] − log[CFUtreatment mL^−1]), Light” value ([8]; illumination 1 hour, about 1000 μmol/m^2/s PAR, where no colonies remained value set to 1 CFU/mL) was 0.39 ± 0.29 log CFU mL^−1 and the “Turf Quality” value [9] was 6.
